“Also recorded” adds a separate entry of the source. Where a SMILES comes first, the peptide text is derived from it. The star is where a group is joined. Cbz = O=C(OCc1ccccc1)*
Legend:
A549-Blue cells [1] = assay: EC50 from dose response curves of impedance and image-based readouts (area under the curve); details: area under the curve from drug addition to 60 hours after; four readouts (normalized cell index, green cell number, red cell number, blue nuclei number); four-parameter logistic fit
Protocol: FIG. 16 provides a table and graphs showing the use of dose response curves to calculate EC50. Using real-time impedance (as represented by normalized cell index) data (FIG. 11A) and live cell imaging (green cell number, red cell number and blue nuclei number) data (FIGS. 14A-C), area under the curve was calculated, and is plotted here as a function of MG132 concentration. Data were fit to a four-parameter logistic equation to determine the EC50.
Using the impedance and image-based readouts presented in Examples II-IV, the EC50 for MG132 was calculated. The area under the curve, spanning from the time of drug addition to 60 hours after drug addition, was plotted as a function of MG132 concentration to yield the dose response curves seen in FIG. 16. The quality of the fitting for the four different readouts is quite good, with R2 values ranging from 0.96 to 0.98. The calculated EC50 values range from 0.86 to 3.0 μm, which is consistent with values reported in the literature. See Han, Y. H. et al. The Effect of MG132, a Proteasome Inhibitor on HeLa Cells in Relation to Cell Growth, Reactive Oxygen Species and GSH. Oncol. Rep. 2009, 22(1), 215-21.

A549-Blue cells [2] = assay: Real-time cell-substrate impedance monitoring of drug-induced apoptosis; assay type: cell-based; details: for change of impedance signal after drug addition: addition at the 25-hour time point, time- and dose-dependent
Protocol: (§1) Cell maintenance and assays were conducted at 37° C./5% CO2 in F-12K media (ATCC; catalog number 30-2004) containing 10% heat-inactivated FBS (Corning, catalog number 35016CV). While impedance was measured every 15 minutes, images were acquired once per hour. In each well, four fields of view were captured for each channel (brightfield, red, green, and blue). Exposure times were as follows: red (300 ms), green (300 ms), and blue (80 ms). The A549-Blue cell line, which stably expresses nuclear-localized blue fluorescent protein (BFP), was produced by transducing A549 cells (ATCC; catalog number CCL-185) with Agilent eLenti Blue (p/n 8711012) at a multiplicity of infection of 1. From day 2 to day 11 postinfection, 1 μg/mL puromycin was included in the growth medium to select for transductants. For real-time visualization of activated caspase 3, Agilent eCaspase 3 NucView 488 (p/n 8711005) was included in growth medium at a concentration of 5 μm. For real-time visualization of translocated phosphatidylserine, Agilent eAnnexin V Red (p/n 8711007) was included in growth medium at a concentration of 0.25 μg/mL. Agilent E-Plate VIEW microplates (p/n 00300601030) were also used. MG132 (Tocris; catalog number 1748/5) and staurosporine (Calbiochem; catalog number 569396) stocks were dissolved in DMSO.
A549-Blue cells (described above) were seeded into an E-PATE VIEW at a density of 10,000 cells/well. As the cells proliferate over the first day, they occupy an expanding surface area on the biosensor array, causing the impedance signal to rise steadily (FIG. 11A and FIG. 11B). If left untreated, the cells grow to confluence, saturating the biosensor array and giving a plateaued impedance signal. […] The kinetics of these drug-induced responses, and the overall shape of the impedance traces, are distinct for each compound. […] Although MG132 and staurosporine both induce apoptosis, they elicit distinct cellular behaviors en route to cell death, which becomes strikingly clear when real-time impedance is multiplexed with live cell imaging.

A549-Blue cells [3] = assay: Live cell imaging (blue nuclei, % confluence, caspase 3, annexin V) of drug-treated cells; assay type: cell-based; details: for total number of blue nuclei: four highest concentrations (MG132 1.9, 5.5, 16.7, 50 μm; staurosporine 0.125-1 μm, over the subsequent 60 hours)
Protocol: as §1
Although A549-Blue cells already cover most of the well bottom by the 26-hour time point, in the absence of drug, they continue proliferating for another 50 hours, packing cells together at higher density (FIG. 12A). Consistent with this, the impedance signal plateaus at roughly 30 hours while the total number of blue nuclei continues to increase until ˜80 hours (FIG. 12A). Blue nuclei count is Obtained by an image processing algorithm to count the number of blue objects in the blue-fluorescent image. Each blue nuclei nucleus corresponds to an A549 cell as it was transduced to expresses nuclear-localized blue fluorescent protein. As such the number of blue nuclei in a well correspond to the number of viable A549-blue cells present in the well. […] Although, over time, these nuclei shrink in size and begin clustering together, they largely remain intact, explaining why the number of blue nuclei stays fairly constant in FIG. 12C. The above coupling of impedance with imaging clearly provides a more complete and nuanced understanding of drug-mediated A549 cell killing than would be possible using either technique alone. Moving beyond simple cell counts, we next probed the kinetics of biochemical phenomena that are specific to the apoptotic killing pathway.
Along with impedance and blue nuclei counts, the induction of apoptosis by MG132 was also tracked by percent cellular confluence, caspase 3 activation (causing cells to fluoresce green), and phosphatidylserine translocation (causing cells to fluoresce red). […] The bold white arrows in the panels for the 20- and 40-hour time points highlight large membrane blebs that contain phosphatidylserine in their outer leaflet.
Next, the continuous response of A549-Blue cells to MG132 was plotted using each of the image-based readouts. Blue nuclei counts (FIG. 14A) (FIG. 14A) display a dependency on drug concentration that closely reflects the impedance responses seen in (FIG. 11A), Despite the extensive apoptotic response, throughout the course of this assay the % cellular confluence never drops below 50% (FIG. 14B), where the cell confluence number is derived from bright field images through image processing algorithms. This is consistent with the fact that, unlike in vivo contexts, where apoptotic cells and their debris are removed through phagocytosis, in vitro, a large percentage of apoptotic cells continue to occupy the well bottom (FIG. 12B). […] Considering the number of cells that were seeded, their rate of growth, and the percentage of cells that display apoptotic markers (FIG. 13), the output numbers in FIGS. 14A-C are consistent with expectations. […]

CC(C)C[C@@H](C=O)NC(=O)[C@H](CC(C)C)NC(=O)[C@H](CC(C)C)NC(=O)OCc1ccccc1 [MG132] (Cbz-Leu-Leu-Leu-aldehyde)
EC50 (A549-Blue cells [1]): 860 to 3000 nM
change of impedance signal after drug addition (A549-Blue cells [2]): marked decrease
impedance signal at high concentrations (A549-Blue cells [2]; high concentrations of MG132 (FIG. 11A)): drop to zero; also recorded: dropped to zero
number of caspase 3-activated cells exceeds number of phosphatidylserine translocated cells by (A549-Blue cells [3]; 50 μM MG132, 40 hours following the first 20 hours of drug treatment): approximately 20%
time at which the number of blue nuclei begins to decrease (A549-Blue cells [3]; after drug addition, 50 μM MG132 (FIG. 15), same time caspase 3 activation and phosphatidylserine translocation become detectable): ~10 h
number of caspase 3 positive (fluorescence green) objects (A549-Blue cells [3]; dependent on MG132 concentration (FIG. 14C)): increase over time
number of annexin V positive (fluorescent red) objects (A549-Blue cells [3]; dependent on MG132 concentration (FIG. 14D)): increase over time
total number of blue nuclei (A549-Blue cells [3]): decreases over time

CN[C@@H]1C[C@H]2O[C@@](C)([C@@H]1OC)n1c3ccccc3c3c4c(c5c6ccccc6n2c5c31)C(=O)NC4 [staurosporine]
change of impedance signal after drug addition (A549-Blue cells [2]): marked decrease
impedance response at the four highest concentrations (A549-Blue cells [2]; staurosporine 0.125, 0.250, 0.500, and 1 μm): plummet within the first few minutes
total number of blue nuclei (A549-Blue cells [3]): modest impact
cell morphology by live cell imaging (A549-Blue cells [3]; one hour after staurosporine addition): shrunk so severely that their cytoplasm is barely visible; also recorded: massive cytoplasmic shrinkage
